Test results from paper PMC7264150 (Nature Communications, 2020).

Target: T1, Pl-TcdA1 (Photorhabdus luminescens, UniProt Q9RN43)
T1 construct: gene tcdA
Format: binding

In the case of `CC(=O)N[C@H]1C(O)O[C@H](CO)[C@@H](O[C@@H]2O[C@H](CO)[C@H](O)[C@H](O)[C@H]2O[C@@H]2O[C@@H](C)[C@@H](O)[C@@H](O)[C@@H]2O)[C@@H]1O[C@@H]1O[C@@H](C)[C@@H](O)[C@@H](O)[C@@H]1O` (stereo partly shown) [Lewis Y], the “glycan microarray, AlexaFluor488-labelled toxin” value is reported as “tetrasaccharides Lewis Y and sialyl-Lewis X interacted strongly with Pl-TcdA1”.
